ChEMBL document CHEMBL1125487, “Acetazolamide-like carbonic anhydrase inhibitors with topical ocular hypotensive activity” (J Med Chem, 1992)
Values after ≈ are worked out from the molar mass of the structure shown. Values joined by “and” are separate entries in the source; they are usually repeats but may differ in a detail not shown here. Equal values may be shown once.

Key:
Oryctolagus cuniculus [1] = species on record: Oryctolagus cuniculus; test: Effect on intraocular pressure in left eye was tested by using transition ocular hypertension model at basal condition; type: functional
Oryctolagus cuniculus [2] = species on record: Oryctolagus cuniculus; test: Effect on intraocular pressure in left eye was tested by using transition ocular hypertension model at 20 min.; also: test concentration or dose not given here; type: functional
Oryctolagus cuniculus [3] = species on record: Oryctolagus cuniculus; test: Effect on intraocular pressure in left eye was tested by using transition ocular hypertension model at 10 min.; also: test concentration or dose not given here; type: functional
Oryctolagus cuniculus [4] = species on record: Oryctolagus cuniculus; test: Effect on intraocular pressure in right eye was tested by using transition ocular hypertension model at basal condition; type: functional; also: test concentration or dose not given here
Oryctolagus cuniculus [5] = species on record: Oryctolagus cuniculus; test: Effect on intraocular pressure in left eye was tested by using transition ocular hypertension model at 0 min.; also: test concentration or dose not given here; type: functional
Oryctolagus cuniculus [6] = species on record: Oryctolagus cuniculus; test: Effect on intraocular pressure in right eye was tested by using transition ocular hypertension model at 0 min.; also: test concentration or dose not given here; type: functional
Oryctolagus cuniculus [7] = species on record: Oryctolagus cuniculus; test: Effect on intraocular pressure in right eye was tested by using transition ocular hypertension model at 20 min.; also: test concentration or dose not given here; type: functional
Oryctolagus cuniculus [8] = species on record: Oryctolagus cuniculus; test: Effect on intraocular pressure in left eye was tested by using transition ocular hypertension model at 40 min.; also: test concentration or dose not given here; type: functional
physchem = conditions: phosphate buffer
Description: Solubility (in phosphate buffer)

Oryctolagus cuniculus [9] = species on record: Oryctolagus cuniculus; test: Effect on intraocular pressure in right eye was tested by using transition ocular hypertension model at 40 min.; also: test concentration or dose not given here; type: functional
Oryctolagus cuniculus [10] = species on record: Oryctolagus cuniculus; test: Effect on intraocular pressure in right eye was tested by using transition ocular hypertension model at 10 min.; type: functional
Carbonic anhydrase = type: protein assay
Description: Inhibition of Carbonic anhydrase enzyme in rabbits

[11] = buffer
Description: Solubility (in phosphate buffer)

Oryctolagus cuniculus [12] = test: Effect on intraocular pressure in left eye was tested by using transition ocular hypertension model at 0 min. (after 4 hr administration); type: functional
Oryctolagus cuniculus [13] = test: Effect on intraocular pressure in right eye was tested by using transition ocular hypertension model at 10 min. (after 8 hr administration); type: functional
Oryctolagus cuniculus [14] = test: Effect on intraocular pressure in left eye was tested by using transition ocular hypertension model at 0 min. (after 8 hr administration); type: functional
Oryctolagus cuniculus [15] = test: Effect on intraocular pressure in left eye was tested by using transition ocular hypertension model at 20 min. (after 4 hr administration); type: functional
Oryctolagus cuniculus [16] = test: Effect on intraocular pressure in right eye was tested by using transition ocular hypertension model at 40 min. (after 4 hr administration); type: functional
Oryctolagus cuniculus [17] = test: Effect on intraocular pressure in right eye was tested by using transition ocular hypertension model at basal condition (after 4 hr administration); type: functional
Oryctolagus cuniculus [18] = test: Effect on intraocular pressure in left eye was tested by using transition ocular hypertension model at 10 min. (after 8 hr administration); type: functional
Oryctolagus cuniculus [19] = test: Effect on intraocular pressure in right eye was tested by using transition ocular hypertension model at 0 min (after 8 hr administration); type: functional
Oryctolagus cuniculus [20] = test: Effect on intraocular pressure in right eye was tested by using transition ocular hypertension model at basal condition (after 8 hr administration); type: functional
Oryctolagus cuniculus [21] = test: Effect on intraocular pressure in left eye was tested by using transition ocular hypertension model at basal condition (after 4 hr administration); type: functional
Oryctolagus cuniculus [22] = test: Effect on intraocular pressure in right eye was tested by using transition ocular hypertension model at 20 min. (after 4 hr administration); type: functional
Oryctolagus cuniculus [23] = test: Effect on intraocular pressure in left eye was tested by using transition ocular hypertension model at 40 min. (after 8 hr administration); type: functional
Oryctolagus cuniculus [24] = test: Effect on intraocular pressure in right eye was tested by using transition ocular hypertension model at 10 min. (after 4 hr administration); type: functional
Oryctolagus cuniculus [25] = test: Effect on intraocular pressure in right eye was tested by using transition ocular hypertension model at 20 min. (after 8 hr administration); type: functional
Oryctolagus cuniculus [26] = test: Effect on intraocular pressure in left eye was tested by using transition ocular hypertension model at 20 min. (after 8 hr administration); type: functional
Oryctolagus cuniculus [27] = test: Effect on intraocular pressure in left eye was tested by using transition ocular hypertension model at 10 min. (after 4 hr administration); type: functional
Oryctolagus cuniculus [28] = test: Effect on intraocular pressure in left eye was tested by using transition ocular hypertension model at 40 min. (after 4 hr administration); type: functional
Oryctolagus cuniculus [29] = test: Effect on intraocular pressure in right eye was tested by using transition ocular hypertension model at 40 min. (after 8 hr administration); type: functional
Oryctolagus cuniculus [30] = test: Effect on intraocular pressure in left eye was tested by using transition ocular hypertension model at basal condition (after 8 hr administration); type: functional
Oryctolagus cuniculus [31] = test: Effect on intraocular pressure in right eye was tested by using transition ocular hypertension model at 0 min (after 4 hr administration); type: functional

Row | Structure (SMILES) | IOP (Oryctolagus cuniculus [1]) [mmHg] | IOP (Oryctolagus cuniculus [2]) [mmHg] | IOP (Oryctolagus cuniculus [3]) [mmHg] | IOP (Oryctolagus cuniculus [4]) [mmHg] | IOP (Oryctolagus cuniculus [5]) | IOP (Oryctolagus cuniculus [6]) [mmHg] | IOP (Oryctolagus cuniculus [7]) [mmHg] | IOP (Oryctolagus cuniculus [8]) [mmHg] | solubility (physchem) [mM] | IOP (Oryctolagus cuniculus [9]) [mmHg] | IOP (Oryctolagus cuniculus [10]) [mmHg] | IC50 (Carbonic anhydrase) [nM] | also measured
1 | CCC(C)OC(=O)CCC(=O)Nc1nnc(S(N)(=O)=O)s1 (configuration not stated) | 15.33 | 21.17 | 25.67 | 15.67 | 15.5 mmHg | 14.67 | 19 | 17.17 | 3.7 (≈ 1240 µg/mL) | 16.67 | 21.5 | 370 | 
2 | CCCCCCCCCCCCOC(=O)CCC(=O)Nc1nnc(S(N)(=O)=O)s1 |  |  |  |  |  |  |  |  |  |  |  | 520 | 
3 | NS(=O)(=O)c1nnc(NC(=O)CCCC(=O)O)s1 | 15.5 | 22 | 25.5 | 15.5 | 15.33 mmHg | 14.67 | 19 | 17.83 | 31 (≈ 9120 µg/mL) | 16.5 | 21.17 | 520 | 
4 | COC(=O)CC(=O)Nc1nnc(S(N)(=O)=O)s1 | 16.33 | 22.5 | 27.17 | 16.17 | 16.17 mmHg | 15.87 | 19.67 | 19.17 | 16 (≈ 4480 µg/mL) | 17 | 23.17 | 940 | 
5 | NS(=O)(=O)c1nnc(NC(=O)CCCCC(=O)O)s1 | 16.33 | 21.67 | 25.17 | 16.83 | 16.17 mmHg and 22 mmHg | 16.33 | 20 | 18 | 25 (≈ 7710 µg/mL) | 17.17 |  |  | 
6 | CC(C)(C)NC[C@H](O)COc1nsnc1N1CCOCC1 [TIMOLOL] | 18.53 | 21.97 | 25.84 | 18.53 | 16.84 mmHg | 15.77 | 19.38 | 18.77 |  | 18.77 | 18.57 |  | 
7 | CCCCCOC(=O)CCC(=O)Nc1nnc(S(N)(=O)=O)s1 | 15.67 | 21.33 | 24.5 | 15.83 | 15.67 mmHg | 15 | 20 | 18.83 | 1.3 (≈ 456 µg/mL) | 17.83 | 22.67 | 390 | 
8 | NCCCCC(=O)Nc1nnc(S(N)(=O)=O)s1 | 15.5 | 21.5 | 26.17 | 15.83 | 15.83 mmHg | 15 | 20.83 | 17.33 |  | 16.83 | 24 | 440 | S [11]: 8.8 mM
9 | NS(=O)(=O)c1nnc(NC(=O)CCCCCCCC(=O)O)s1 | 16 | 20.67 | 26.5 | 15.83 | 16 mmHg | 16.17 | 19.5 | 17.5 | 21.6 (≈ 7570 µg/mL) | 17 | 25.17 | 480 | 
10 | CCOC(=O)CCC(=O)Nc1nnc(S(N)(=O)=O)s1 | 15.33 | 20.67 | 25.67 | 15.33 | 15.5 mmHg | 13.33 | 17.33 | 17.67 | 8.9 (≈ 2740 µg/mL) | 15.67 | 20.33 |  | 
11 | COC(=O)CCCCC(=O)Nc1nnc(S(N)(=O)=O)s1 |  |  |  |  |  |  |  |  | < 1 |  |  | 230 | 
12 | COC(=O)CCC(=O)/N=c1/sc(S(N)(=O)=O)nn1C | 15.33 | 21.5 | 25.83 | 15.5 | 16 mmHg | 14.83 | 20.83 | 17.83 | 7.3 (≈ 2250 µg/mL) | 17.33 | 24.67 | 450 | 
13 | NS(=O)(=O)c1nnc(NC(=O)CCC(=O)O)s1 | 15.5 | 21.67 | 26 | 15.67 | 15.5 mmHg | 14.33 | 17.17 | 19 | 60.7 (≈ 17000 µg/mL) | 15.67 | 19.33 |  | IOP (Oryctolagus cuniculus [12]): 15.33 mmHg; IOP (Oryctolagus cuniculus [13]): 22.23 mmHg; IOP (Oryctolagus cuniculus [14]): 15.67 mmHg; IOP (Oryctolagus cuniculus [15]): 22 mmHg; IOP (Oryctolagus cuniculus [16]): 16.33 mmHg; IOP (Oryctolagus cuniculus [17]): 15.5 mmHg; IOP (Oryctolagus cuniculus [18]): 26.17 mmHg; IOP (Oryctolagus cuniculus [19]): 14.83 mmHg; IOP (Oryctolagus cuniculus [20]): 15.67 mmHg; IOP (Oryctolagus cuniculus [21]): 15.5 mmHg; IOP (Oryctolagus cuniculus [22]): 18.33 mmHg; IOP (Oryctolagus cuniculus [23]): 18.67 mmHg; IOP (Oryctolagus cuniculus [24]): 18.5 mmHg; IOP (Oryctolagus cuniculus [25]): 18.67 mmHg; IOP (Oryctolagus cuniculus [26]): 21.5 mmHg; IOP (Oryctolagus cuniculus [27]): 25.83 mmHg; IOP (Oryctolagus cuniculus [28]): 18.83 mmHg; IOP (Oryctolagus cuniculus [29]): 16.5 mmHg; IOP (Oryctolagus cuniculus [30]): 15.67 mmHg; IOP (Oryctolagus cuniculus [31]): 13.33 mmHg
14 | COC(=O)CCC(=O)Nc1nnc(S(N)(=O)=O)s1 | 15.83 | 20.17 | 25.5 | 15.67 | 16.17 mmHg | 15.17 | 19.5 | 16.67 | 3.2 (≈ 942 µg/mL) | 16.5 | 25.33 | 550 | 
15 | COC(=O)CCCC(=O)Nc1nnc(S(N)(=O)=O)s1 |  |  |  |  |  |  |  |  | 11.5 (≈ 3550 µg/mL) |  |  | 910 | 
16 | COC(=O)CCCCCCCC(=O)Nc1nnc(S(N)(=O)=O)s1 |  |  |  |  |  |  |  |  | < 1 |  |  | 910 | 
17 | CCCCCOC(=O)CCC(=O)/N=c1/sc(S(N)(=O)=O)nn1C | 15.83 | 20.67 | 24 | 15.67 | 15.33 mmHg | 15.5 | 25.17 | 17.83 | 1.4 (≈ 510 µg/mL) | 22 | 20.67 | 310 | 
